According to ChEMBL document CHEMBL2390898, “Optimizing the control of apoptosis by amide/triazole isosteric substitution in a constrained peptoid” (Eur J Med Chem, 2013):
Calls of active or inactive are those of the source. The rule behind the calls is not given here.

How the values were obtained:
[1] = biological target: T1, Apoptotic protease-activating factor 1 (Homo sapiens) (UniProt O14727); assay: Binding affinity to Apaf1 (unknown origin) assessed as inhibition of procaspase-9 activity
T1 sequence (whole entry): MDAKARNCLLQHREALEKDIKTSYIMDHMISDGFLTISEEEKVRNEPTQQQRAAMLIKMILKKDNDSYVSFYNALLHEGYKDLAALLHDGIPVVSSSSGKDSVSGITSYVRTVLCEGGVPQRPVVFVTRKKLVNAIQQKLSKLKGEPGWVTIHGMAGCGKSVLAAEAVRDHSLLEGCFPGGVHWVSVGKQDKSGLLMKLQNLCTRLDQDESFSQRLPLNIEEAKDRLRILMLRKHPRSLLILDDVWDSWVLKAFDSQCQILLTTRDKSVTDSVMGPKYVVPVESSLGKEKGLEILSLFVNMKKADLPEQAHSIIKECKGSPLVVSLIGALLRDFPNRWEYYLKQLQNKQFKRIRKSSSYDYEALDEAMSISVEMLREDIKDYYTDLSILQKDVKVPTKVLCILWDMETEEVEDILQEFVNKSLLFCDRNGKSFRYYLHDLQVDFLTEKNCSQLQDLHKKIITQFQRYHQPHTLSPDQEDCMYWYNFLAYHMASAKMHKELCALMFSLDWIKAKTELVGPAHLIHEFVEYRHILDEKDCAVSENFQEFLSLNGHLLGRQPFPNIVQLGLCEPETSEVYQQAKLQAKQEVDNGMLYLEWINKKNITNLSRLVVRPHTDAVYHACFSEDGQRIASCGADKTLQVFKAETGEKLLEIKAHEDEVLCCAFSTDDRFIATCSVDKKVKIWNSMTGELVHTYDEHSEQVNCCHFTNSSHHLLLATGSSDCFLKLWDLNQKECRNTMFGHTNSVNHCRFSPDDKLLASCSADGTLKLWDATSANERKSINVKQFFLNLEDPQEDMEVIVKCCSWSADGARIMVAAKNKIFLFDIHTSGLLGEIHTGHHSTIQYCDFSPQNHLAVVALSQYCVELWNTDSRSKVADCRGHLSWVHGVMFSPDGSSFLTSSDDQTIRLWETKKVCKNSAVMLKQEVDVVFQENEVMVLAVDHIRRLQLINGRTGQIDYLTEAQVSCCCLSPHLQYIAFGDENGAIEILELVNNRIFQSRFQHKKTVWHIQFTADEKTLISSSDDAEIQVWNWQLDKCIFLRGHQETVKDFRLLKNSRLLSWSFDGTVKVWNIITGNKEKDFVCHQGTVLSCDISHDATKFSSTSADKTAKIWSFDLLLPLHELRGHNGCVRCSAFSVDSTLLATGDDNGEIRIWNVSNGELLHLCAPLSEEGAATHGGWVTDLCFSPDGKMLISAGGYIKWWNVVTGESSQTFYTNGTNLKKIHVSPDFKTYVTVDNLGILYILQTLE

Caspase-9 (Homo sapiens) = biological target: T2, Caspase-9 (Homo sapiens) (UniProt P55211); assay: Inhibition of recombinant caspase-9 (unknown origin)
T2 sequence (whole entry): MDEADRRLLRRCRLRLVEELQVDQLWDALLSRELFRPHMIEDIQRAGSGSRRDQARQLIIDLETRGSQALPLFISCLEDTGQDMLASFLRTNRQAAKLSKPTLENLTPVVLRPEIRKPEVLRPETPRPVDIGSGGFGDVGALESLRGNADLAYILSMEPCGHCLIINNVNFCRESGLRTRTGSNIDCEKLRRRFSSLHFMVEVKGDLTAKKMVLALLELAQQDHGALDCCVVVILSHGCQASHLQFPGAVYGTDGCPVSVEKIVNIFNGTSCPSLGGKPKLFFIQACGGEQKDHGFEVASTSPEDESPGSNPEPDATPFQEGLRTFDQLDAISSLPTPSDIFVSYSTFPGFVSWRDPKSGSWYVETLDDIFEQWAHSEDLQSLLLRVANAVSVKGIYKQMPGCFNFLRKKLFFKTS

SMILES	inhibition [1]	inhibition (Caspase-9 (Homo sapiens))
O=C1C(c2cn(CCc3ccc(Cl)cc3Cl)nn2)N(CCC(c2ccccc2)c2ccccc2)C(=O)CN1CCc1ccc(Cl)cc1Cl (stereo not drawn)	Active	inactive
O=C1CC(C(=O)NCCc2ccc(Cl)cc2Cl)(c2cnn(CCc3ccc(Cl)cc3Cl)n2)N1CCC(c1ccccc1)c1ccccc1 (racemic)	Active	inactive
O=C1C(c2cnnn2CCc2ccc(Cl)cc2Cl)N(CCC(c2ccccc2)c2ccccc2)C(=O)CN1CCc1ccc(Cl)cc1Cl (racemic)	Active	inactive
NC(=O)CN(CCc1ccc(Cl)cc1Cl)C(=O)CC1C(=O)N(CCc2ccc(Cl)cc2Cl)CC(=O)N1CCC(c1ccccc1)c1ccccc1 (racemic)	Active	inactive
